Results on two compounds are retold here after patent US20120128745A1, “BENZYLIDENE MALONATES” (BASF SE, priority 2009, published 2012).

Data set [1] is described as follows: stabilization (photostability) of Butyl Methoxydibenzoylmethane in O/W emulsion film under solar simulator, HPLC. Format: physicochemical. The conditions noted are these: 20 μm film on quartz plate, solar simulator 2 h (10 MED). Here is the method: Testing of stabilization of Butyl Methoxydibenzoylmethane (BMDBM, Parsol 1789):
The photostability of Butyl Methoxydibenzoylmethane is determined by spreading the emulsion as a 20 μm thick film on a quartz plate. The film is irradiated using a solar simulator for 2 h (10 MED). After irradiation, the quartz plate is plunged into 5 ml of tetrahydrofurane. The amount of UV-A filter Butyl Methoxydibenzoylmethane is then determined using high performance liquid chromatography. The residual Butyl Methoxydibenzoylmethane is determined to be 47%.
The photostability of Butyl Methoxydibenzoylmethane in the comparative formulation C is determined as described above for formulation B. The residual Butyl Methoxydibenzoylmethane is determined to be 4%.

Data set [2] can be described thus: photostability of 4-Methoxybenzylidene-di-tert-butyl-malonate in O/W emulsion film under solar simulator, HPLC. Type of data set: physicochemical. The conditions noted are these: formulation A, solar simulator up to 10 h (50 MED). Here is the method:
The photostability of Butyl 4-Methoxybenzylidene-di-tert-butyl-malonate is determined by spreading the emulsion as a 20 μm thick film on four quartz plates. The plates are irradiated using a solar simulator for 1 h (5 MED), 2 h (10 MED), 4 h (20 MED) and 10 h (50 MED). After the indicated irradiation times one of the quartz plate is plunged into 5 ml of tetrahydrofurane. The amount of UV-B filter 4-Methoxybenzylidene-di-tert-butyl-malonate is then determined using high performance liquid chromatography. The residual 4-Methoxybenzylidene-di-tert-butyl-malonate is determined to be 100% (±1%) in all cases.

Turning to `COc1ccc(C(=O)CC(=O)c2ccc(C(C)(C)C)cc2)cc1` [Butyl Methoxydibenzoylmethane, 1,3-Propanedione, 1-[4-(1,1-dimethylethyl)phenyl]-3-(4-methoxyphenyl)-], the “residual Butyl Methoxydibenzoylmethane” value was 4% in data set [1] (comparative formulation C (without benzylidene malonate)) and 47% in data set [1] (formulation B (with 4-Methoxybenzylidene-di-tert-butyl-malonate)).

For the compound `COc1ccc(C=C(C(=O)OC(C)(C)C)C(=O)OC(C)(C)C)cc1` [Example 18, 4-Methoxybenzylidene-di-tert-butyl-malonate], the “photostability in an O/W sunscreen formulation” value in data set [2] is listed as “complete photostability”.
